Assay results published in PubChem BioAssay (NCI).
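Test compounds were applied to cells in 96-well plates for 48 hours at 5 doses. Here, GI50 denotes the concentration required for 50% inhibition of growth. TGI: total growth inhibition.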

Columns and labels:
Assay in all cases: inhibition of tumour cell growth, NCI panel, 48 h
OVCAR-5 ovarian = system: OVCAR-5 ovarian
OVCAR-3 ovarian = system: OVCAR-3 ovarian
SK-MEL-5 melanoma = system: SK-MEL-5 melanoma
COLO 205 colon = system: COLO 205 colon
RPMI-8226 leukemia = system: RPMI-8226 leukemia
EKVX NSCLC = system: EKVX NSCLC
U251 CNS = system: U251 CNS
MALME-3M melanoma = system: MALME-3M melanoma
ACHN renal = system: ACHN renal
RXF 393 renal = system: RXF 393 renal

Row | SMILES | GI50 (OVCAR-5 ovarian) [µM] | TGI (OVCAR-5 ovarian) [µM] | GI50 (OVCAR-3 ovarian) [µM] | TGI (OVCAR-3 ovarian) [µM] | GI50 (SK-MEL-5 melanoma) [µM] | TGI (SK-MEL-5 melanoma) [µM] | GI50 (COLO 205 colon) [µM] | TGI (COLO 205 colon) [µM] | GI50 (RPMI-8226 leukemia) [µM] | TGI (RPMI-8226 leukemia) [µM] | GI50 (EKVX NSCLC) [µM] | TGI (EKVX NSCLC) [µM] | GI50 (U251 CNS) [µM] | TGI (U251 CNS) [µM] | GI50 (MALME-3M melanoma) [µM] | TGI (MALME-3M melanoma) [µM] | GI50 (ACHN renal) [µM] | TGI (ACHN renal) [µM] | TGI (RXF 393 renal) [µM]
1 | CC(=Nc1ccccc1)C1=C(O)C(Cc2ccccc2)NC1=O (stereo not given) | 0.0938 | > 100 | 0.0237 | 0.0535 | 0.0446 | 2.63 | 0.0279 | 0.0824 | 0.0515 | > 100 | 0.0798 | > 100 | 0.0373 | > 37.2 | 0.018 | > 100 | 0.0625 | > 100 | –
2 | Cn1ccnc1C(=O)/C=C/c1ccccc1 | 13.7 | 27.8 | 3.22 | 8.5 | 2.92 | 12.5 | 5.38 | 18 | 2.91 | 8.97 | 11.6 | 25.1 | 3.21 | 13.9 | 12.3 | 27.9 | 4.53 | 20.3 | –
3 | O=C(O)c1cnc2[nH]ccn2c1=O | – | > 100 | – | > 100 | – | > 100 | – | > 100 | – | > 100 | – | > 100 | – | > 100 | – | > 100 | – | > 100 | –
4 | O=[N+]([O-])c1cccc(C2ON2C2CCCCC2)c1 (stereo not given) | – | > 100 | – | 34.6 | – | 33 | – | 32.6 | – | 7.98 | – | > 100 | – | 14 | – | 54.6 | – | 32 | –
5 | Fc1ccc(Nc2nc3nonc3nc2Nc2ccc(F)cc2)cc1 | 0.709 | 13.8 | 0.371 | 11 | 0.229 | 0.702 | 0.342 | 1.43 | 0.207 | 0.697 | – | – | 0.387 | 10.8 | 0.277 | 1.11 | 0.399 | 7.09 | –
6 | COc1cc2c(cc1C)NC(=O)/C2=C\c1cccc(Oc2ccccc2)c1 | 17 | 32.4 | 13.2 | 26.8 | 11.6 | 23.8 | 16.6 | 33.5 | 5.02 | 24 | 15.4 | 41.7 | 12.4 | 24.9 | 26.1 | 44.6 | 17.3 | 31 | –
7 | CN1CCN(c2ccc3nc(-c4ccc5nc(-c6ccc(OCCC(C)(C)C)cc6)[nH]c5c4)[nH]c3c2)CC1 | 2.96 | 9.96 | 5.22 | 16.8 | 12.7 | 27.6 | 12.9 | 30 | 2.86 | 7.44 | 4.67 | 21.4 | 2.16 | 3.81 | 12.2 | 27.2 | 9.2 | 22.8 | –
8 | O=CC[C@H]1CCc2ccccc2C12CCC(=O)CC2 | – | > 100 | – | > 100 | – | > 100 | – | > 100 | – | > 100 | – | – | – | – | – | > 100 | – | > 100 | –
9 | CN1c2ccccc2C(C)(C)C12C=Cc1cc(O)ccc1O2 (stereo not given) | 10.2 | 25.2 | 2.16 | 5.23 | 2.38 | 9.94 | 1.9 | 3.88 | 1.71 | 4.91 | 3.66 | 14.5 | 3.18 | 10.9 | – | – | 7.2 | 22.9 | –
10 | O=C(CCC(=O)C(C(=O)c1ccccc1)c1ccccc1)Nc1cccc(C(F)(F)F)c1 (stereo not given) | – | > 100 | – | > 100 | – | – | – | > 100 | – | > 100 | – | > 100 | – | > 100 | – | > 100 | – | > 100 | –
11 | COc1ccc(/C=c2\sc3n(c2=O)C(N)=C(C#N)C(c2ccc(OC)cc2)C=3c2nc3ccccc3[nH]2)cc1 (stereo not given) | – | 67.5 | – | 44.3 | – | 36.8 | – | > 100 | – | > 100 | – | 56.2 | – | 34.4 | – | 42.2 | – | > 100 | –
12 | Cc1ccc(S(=O)(=O)OCC23CCC(CC2)C2CC23)cc1 (stereo not given) | – | > 100 | – | > 100 | – | 75.4 | – | > 100 | – | 87.8 | – | – | – | > 100 | – | > 100 | – | > 100 | –
13 | CCC(=O)c1c(NOC2OC(COC(C)=O)C(OC(C)=O)C(OC(C)=O)C2OC(C)=O)nc(OC)n(C)c1=O (stereo not given) | – | > 100 | – | – | – | > 100 | – | > 100 | – | – | – | > 100 | – | > 100 | – | – | – | > 100 | > 100
14 | C1=CC=C2NCCCNC3=CC=CC=CC3=NCCCN=C2C=C1 | – | > 100 | – | > 100 | – | > 100 | – | > 100 | – | > 100 | – | > 100 | – | > 100 | – | – | – | > 100 | –
15 | COc1cc(Nc2ccnc(NCCCNc3ccnc4cc(Cl)ccc34)n2)cc(OC)c1 | 2.01 | 6 | 1.95 | 4.32 | 1.51 | 2.84 | 1.38 | 2.9 | 1.56 | 4.11 | – | – | 1.38 | 2.75 | 2.02 | 3.86 | 1.8 | 3.53 | –
